According to patent US20100215620A1, “THE CO-CULTURE METHOD OF SPHINGOMONAS SP. BACTERIAL STRAIN AND ASPERGILLUS SP. FUNGUS STRAIN, NEW ANTI-CANCER AND ANTIBIOTIC GLIONITRINS DERIVED FROM THIS CO-CULTURE METHOD, AND PHARMACEUTICAL COMPOSITION CONTAINING GLIONITRINS OR PHARMACEUTICALLY ACCEPTABLE SALT THEREOF AS AN ACTIVE INGREDIENT” (KOREA INSTITUTE OF SCIENCE AND TECHNOLOGY, priority 2007, published 2010):
In brackets after ≈: the same amount, converted by molar mass. Where two headings read alike, the source gives them in different places.

What was measured:
[1] = tested on: Trichophyton rubrum IFO 9185; assay: Antifungal MIC, Sabouraud glucose liquid medium; assay type: cell-based
From the text: (§1) The present inventors also evaluated antifungal activity of glionitrins A and B against those strains distributed from American Type Culture Collection (ATCC, Manassas, Va., USA) such as Aspergillus fumigatus HIC 6094 and Trichophyton rubrum IFO 9185. […] To determine MIC of glionitrin for those two fungus strains, spores of the fungus strains were suspended in sterilized distilled water at the density of 10^5 spores/mL and the density was adjusted by using Sabouraud glucose liquid medium (Difco) to 10^3 cells/mL. Then, the cells were distributed in a 96-well plate at the density of 10^2 cells/100 μl/well, to which glionitrin was added at different concentrations, followed by culture at 28° C. for […]. The concentration of glionitrin at which no fungi growth was confirmed was determined as MIC.

[2] = tested on: Aspergillus fumigatus HIC 6094; assay: Antifungal MIC, Sabouraud glucose liquid medium; assay type: cell-based
From the text: as §1

[3] = tested on: Micrococus leuteus IFC 12708[G(+)]; assay: Antibacterial MIC, broth dilution, OD600; assay type: cell-based, Micrococcus leuteus; details: Micrococcus
Description: (§2) The present inventors also investigated antibacterial effect of glionitrin A and glionitrin B using Micrococcus leuteus IFC 12708, Bacillus subtilis ATCC 6633, Proteus vulgaris ATCC 3851, Salmonella typhimurium ATCC 1 4028 and 3 MRSA strains, Staphylococcus aureus ATCC 43300, S. aureus ATCC 700787 and S. aureus ATCC 700788 distributed from American Type Culture Collection (ATCC, Manassas, Va., USA). […] Then, the medium was eliminated and 100 μl of medium containing 10^5 cfu/mL of each strain was loaded in each well of a 96-well plate. Glionitrin diluted at different concentrations was added thereto, followed by culture at 37° C. for 24 hours. 24 hours later, OD600 was measured.

[4] = tested on: Staphylococcu aureus ATCC 4330(MRSA); assay: Antibacterial MIC, broth dilution, OD600; assay type: cell-based; details: Staphylococcus aureus, 24 h
Description: as §2

[5] = tested on: Bacillus subtilis ATCC 6633 [G(+)]; assay: Antibacterial MIC, broth dilution, OD600; assay type: cell-based
Description: as §2

[6] = tested on: S. aureus ATCC 700787(MRSA); assay: Antibacterial MIC, broth dilution, OD600; assay type: cell-based; details: Staphylococcus aureus, 24 h
Description: as §2

[7] = tested on: Salmonella typhimurium ATCC 14028[G(−)]; assay: Antibacterial MIC, broth dilution, OD600; assay type: cell-based; details: Salmonella enterica
Description: as §2

[8] = tested on: S. aureus ATCC 700788(MRSA); assay: Antibacterial MIC, broth dilution, OD600; assay type: cell-based; details: Staphylococcus aureus
Description: as §2

[9] = tested on: Proteus vulgaris ATCC 3851[G(−)]; assay: Antibacterial MIC, broth dilution, OD600; assay type: cell-based
Description: as §2

[10] = Stability of glionitrin A in solution at room temperature; assay type: physicochemical; details: water, acetonitrile aqueous solution, methanol aqueous solution or DMSO
From the text: The chemical structures of the separated compounds were identified by using MS and nuclear spectrometer. As a result, it was confirmed that glionitrin A was amorphous light yellow powder represented by the molecular formula of C13H11N3O5S2 which had the molecular weight of 353, and glionitrin B was colorless mucous semi-solid material represented by the molecular formula of C15H17N3O5S2 which had the molecular weight of 383.
The present inventors performed instrumental analysis with glionitrins to determine the chemical formulas of glionitrin A and glionitrin B. The separated glionitrin A was left in water or DMAO at room temperature. […] Glionitrin A was measured in chloroform-d solvent and glionitrin B was measured in methanol-d4 solvent.

3 MRSA strains = assay: Antibacterial MIC; assay type: cell-based, Staphylococcus aureus; details: against 3 MRSA strains
Description: as §2

[11] = tested on: HepG2 (liver cancer, HB-8065); assay: In vitro MTT cytotoxicity assay; assay type: cell-based; details: Homo sapiens, HepG2, 24 h
Description: (§3) The present inventors investigated cytotoxic effect of glionitrin on cancer cells with in vitro MTT (3-[4,5-dimethylthiazol-2-yl]-2,5-diphenyltrazdium bromide) assay to quantify live cancer cells. Cancer cell cytotoxicity of glionitrin was evaluated using AGS (stomach cancer, ATCC CRL-1739™), HepG2 (liver cancer, HB-8065™), HCT116 (colon cancer, CCL-247™), A549 (lung cancer, CCL-185™) and DU145 (prostatic cancer, HTB-81™) distributed from American Type Culture Collection (ATCC, Manassas, Va., USA). Stomach cancer (AGS), liver cancer (HepG2), colon cancer (HCT-116), lung cancer (A549) or prostatic cancer (DU-145) cells were distributed in a 96-well plate at the density of 1×10^4 cells/100 μl/well, followed by culture in a 37° C., CO2 incubator for 24 hours. Then, the medium was replaced with a fresh one containing glionitrin, followed by culture at 37° C. 24 hours later, MTT solution was added thereto by 10 μl/well, followed by further culture for 1 hour at 37° C. One hour later, formazane generated by reductase in live cells was quantified by measuring OD450.

[12] = tested on: AGS (stomach cancer, ATCC CRL-1739); assay: In vitro MTT cytotoxicity assay; assay type: cell-based; details: 24 h
Description: as §3

[13] = tested on: A549 (lung cancer, CCL-185); assay: In vitro MTT cytotoxicity assay; assay type: cell-based; details: Homo sapiens, A549, 24 h
Description: as §3

[14] = tested on: HCT-116 (colon cancer, CCL-247); assay: In vitro MTT cytotoxicity assay; assay type: cell-based; details: Homo sapiens, HCT-116, 24 h
Description: as §3

[15] = tested on: DU-145 (prostatic cancer, HTB-81); assay: In vitro MTT cytotoxicity assay; assay type: cell-based; details: Homo sapiens, DU-145, 24 h
Description: as §3

4 non-resistant strains = assay: Antibacterial MIC; assay type: cell-based
Description: as §2

MCF-7 = assay: In vitro MTT cytotoxicity assay; assay type: cell-based; details: Homo sapiens, MCF7
[16] = tested on: Aspergillus fumigatus HIC 6094 and Trichophyton rubrum IFO 9185; assay: Antifungal MIC; assay type: cell-based
From the text: as §1

7 bacterial strains = assay: Antibacterial activity, text summary for the 7 bacterial strains; assay type: cell-based; details: every experimental group (7 bacterial strains)
Description: as §2

[17] = Micrococus leuteus IFC 12708, 37° C., 24 hours, read-out: MIC
[18] = ATCC6633, Bacillus subtilis ATCC 6633, 37° C., 24 hours, read-out: MIC
[19] = Salmonella typhimurium ATCC 14028, 37° C., 24 hours, read-out: MIC
[20] = ATCC3851, Proteus vulgaris ATCC 3851, 37° C., 24 hours, read-out: MIC

Question: Which MIC ([1]; Trichophyton rubrum IFO 9185, 28° C.) does the source give for `C[C@@H]1[C@H](O)[C@@H](C)/C=C/C=C/C=C/C=C/C=C/C=C/C=C/[C@H](O[C@@H]2O[C@H](C)[C@@H](O)[C@H](N)[C@@H]2O)C[C@@H]2O[C@](O)(C[C@@H](O)C[C@@H](O)[C@H](O)CC[C@@H](O)C[C@@H](O)CC(=O)O[C@H]1C)C[C@H](O)[C@H]2C(=O)O` [amphotericin B, reference compound] here?
Answer: Its MIC is 1.56 µg/mL (≈ 1.69 µM).

Question: And the MIC ([2]; Aspergillus fumigatus HIC 6094, 28° C.)?
Answer: Its MIC is 1.56 µg/mL (≈ 1.69 µM).

Question: Which results are given for `CC1(C)S[C@@H]2[C@H](NC(=O)[C@H](N)c3ccccc3)C(=O)N2[C@H]1C(=O)O` [ampicillin, reference compound]?
Answer: MIC [3, 17]: 0.78 µg/mL (≈ 2.23 µM); MIC [4]: 12.5 µg/mL (≈ 35.8 µM); MIC [5, 18]: 3.13 µg/mL (≈ 8.96 µM); MIC [6]: 12.5 µg/mL (≈ 35.8 µM); MIC [7, 19]: 12.5 µg/mL (≈ 35.8 µM); MIC ([8]; S. aureus ATCC 700788 (MRSA), 37° C., 24 hours, read-out: MIC): 25 µg/mL (≈ 71.5 µM); MIC [9, 20]: 1.56 µg/mL (≈ 4.46 µM)

Question: Which results are given for `CN1C(=O)C23Cc4ccc([N+](=O)[O-])cc4N2C(=O)C1(CO)SS3` (stereo not shown) [glionitrin A]?
Answer: stability in solution [10]: trisulfide (glionitrin C) and tetrasulfide (glionitrin D) were generated; MIC ([3]; 24 h): 0.78 µg/mL (≈ 2.21 µM); MIC [4]: 0.78 µg/mL (≈ 2.21 µM); MIC ([5]; Bacillus subtilis, ATCC6633, 24 h): 6.25 µg/mL (≈ 17.7 µM); MIC [6]: 0.78 µg/mL (≈ 2.21 µM); MIC ([7]; 24 h): 3.13 µg/mL (≈ 8.86 µM); MIC ([8]; 24 h): 0.78 µg/mL (≈ 2.21 µM); MIC ([9]; Proteus vulgaris, ATCC3851, 24 h): 3.13 µg/mL (≈ 8.86 µM); MIC (3 MRSA strains; Staphylococcus aureus): 0.78 µg/mL (≈ 2.21 µM); antibacterial activity relative to ampicillin (3 MRSA strains; versus positive control ampicillin): 15 times; IC50 [11]: 2280 ± 300 nM; IC50 [12]: 450 ± 110 nM; IC50 [13]: 550 ± 70 nM; IC50 [14]: 820 ± 110 nM; IC50 [15]: 240 ± 20 nM; MIC ([1]; Trichophyton rubrum, IFO9185): 12.5 µg/mL (≈ 35.4 µM); MIC ([2]; Aspergillus fumigatus, HIC6094): 12.5 µg/mL (≈ 35.4 µM); MIC (4 non-resistant strains): 0.78 to 3.13 µg/mL (≈ 2.21 to 8.86 µM); IC50 (MCF-7): > 2000 nM; MIC ([16]; read-out: MIC (antifungal activity)): 12.5 µg/mL (≈ 35.4 µM)

Question: For `CSC1(CO)C(=O)N2c3cc([N+](=O)[O-])ccc3CC2(SC)C(=O)N1C` (stereo not shown) [glionitrin B], which MIC [3, 17] is on record?
Answer: The MIC was over 100 µg/mL.

Question: What about the MIC [4] of the same compound?
Answer: Its MIC is over 50 µg/mL.

Question: And the MIC [5, 18]?
Answer: Its MIC is over 100 µg/mL.

Question: And the MIC [6]?
Answer: Its MIC is over 50 µg/mL.

Question: What about the MIC [7, 19] of the same compound?
Answer: The MIC was over 50 µg/mL.

Question: And the MIC ([8]; 24 h)?
Answer: Its MIC is over 50 µg/mL.

Question: What about the MIC [9, 20] of the same compound?
Answer: Its MIC is over 50 µg/mL.

Question: What about the IC50 ([11]; MTT, read-out: IC50) of the same compound?
Answer: Its IC50 is over 2000 nM.

Question: What about the IC50 ([12]; AGS, MTT, read-out: IC50) of the same compound?
Answer: The IC50 was 1250 ± 200 nM.

Question: And the IC50 ([13]; MTT, read-out: IC50)?
Answer: Its IC50 is 2250 ± 250 nM.

Question: What about the IC50 ([14]; MTT, read-out: IC50) of the same compound?
Answer: Its IC50 is 3280 ± 550 nM.

Question: And the IC50 ([15]; MTT, read-out: IC50)?
Answer: Its IC50 is 2290 ± 140 nM.

Question: What about the MIC ([1]; IFO9185, Trichophyton rubrum IFO 9185, 28° C., read-out: MIC) of the same compound?
Answer: Its MIC is over 50 µg/mL.

Question: What about the MIC ([2]; HIC6094, Aspergillus fumigatus HIC 6094, 28° C., read-out: MIC) of the same compound?
Answer: Its MIC is over 50 µg/mL.

Question: What about the IC50 (MCF-7; MCF-7, MTT, read-out: IC50) of the same compound?
Answer: Its IC50 is over 2000 nM.

Question: What about the antifungal activity ([16]; Aspergillus fumigatus HIC 6094 and Trichophyton rubrum IFO 9185) of the same compound?
Answer: The antifungal activity was “did not show antifungal activity”.

Question: What about the antibacterial activity (7 bacterial strains) of the same compound?
Answer: The antibacterial activity was “no antibacterial activity at all”.
